The series can be described thus: in vitro. The method, then: Samples were placed separately in hermetically sealed screw-tubes (to avoid evaporation) and then in an orbital incubator (Stuart S1500, UK) set at 50 rpm and 37 °C, for a period of up to 30 d. […] For quantification of free or liposomal peptides in the presence of 80% FBS, serum proteins precipitation was accomplished by mixing one volume of sample (100 μL) with three volumes (300 μL) of acidified isopropanol (with 0.1% TFA), followed by vortex agitation and centrifugation at 15000 rpm for 15 min. Next, the supernatant was transferred to a new eppendorf tube and 400 μL of HEPES (pH 5.0) were added, followed by vigorous vortex for 1 min, in order to retrieve the peptide. Finally, the samples were analyzed by HPLC, based on a calibration curve constructed at the exact same conditions as the samples to be analyzed.
For direct comparison of the stability of the different peptides, the results were normalized and expressed as the percentage of the corresponding initial peptide concentration measured at time point 0, for each peptide and each formulation (solution or liposome). Experiments were carried out in triplicate, and the results are expressed as the mean value ± standard deviation.

SMILES strings stand for the structures.

For orientation: half-life means the time needed for the level to fall by half in the phase considered. A high value points to slow loss.

In the case of `CC[C@H](C)[C@@H]1NC(=O)[C@H](C)NC(=O)[C@H]([C@@H](C)CC)NC(=O)[C@H](CCC(N)=O)NC(=O)[C@H](C)NC(=O)[C@H](CCCNC(=N)N)NC(=O)[C@H](C(C)C)NC(=O)[C@H](CC(C)C)NC(=O)[C@H](CCC(=O)O)NC(=O)[C@H](CCCNC(=N)N)NC(=O)CNC(=O)[C@@H](NC(=O)[C@H](CC(C)C)NC(=O)[C@H](CCCCN)NC(=O)[C@@H](NC(=O)[C@@H](NC(=O)[C@H](CCC(=O)O)NC(=O)[C@H](CCC(=O)O)NC(=O)[C@H](CCSC)NC(=O)[C@H](Cc2c[nH]c3ccccc23)NC(=O)[C@H](CO)NC(=O)[C@@H](N)CC(=O)O)C(C)C)[C@@H](C)CC)CSSC[C@@H]2NC(=O)[C@@H](NC(=O)[C@H](CCCCN)NC(=O)[C@H](CC(N)=O)NC(=O)[C@H](C)NC(=O)[C@H](CC(C)C)NC(=O)[C@H](C)NC(=O)[C@H](CO)NC(=O)[C@H](Cc3ccc(O)cc3)NC(=O)[C@H](CC(C)C)NC(=O)[C@@H]3CCC(=O)N3)CSSC[C@H](NC(=O)CNC(=O)[C@H](C(C)C)NC(=O)[C@H](Cc3c[nH]cn3)NC2=O)C(=O)N[C@@H]([C@@H](C)O)C(=O)N[C@@H](CCCCN)C(=O)N[C@@H](CCCNC(=N)N)C(=O)N[C@@H](CO)C(=O)N[C@@H](CC(C)C)C(=O)N[C@@H](C)C(=O)N[C@@H](CCCNC(=N)N)C(=O)N[C@@H](Cc2ccccc2)C(=O)N[C@H](C(=O)O)CSSC[C@@H](C(=O)NCC(=O)N[C@@H](CC[S+](C)[O-])C(=O)N[C@@H](CO)C(=O)N[C@H](C(=O)N[C@@H](Cc2c[nH]c3ccccc23)C(=O)N[C@@H](CO)C(=O)O)[C@@H](C)O)NC1=O` (some centres unmarked) [O-RLX2, Met (O)^25-human relaxin 2], the “peptide remaining after 10 d of incubation in FBS” value (FBS 80% v/v, 37 °C, 10 d, 58 ± 5.0 μg/mL peptide, HPLC, % of initial concentration, triplicate) is “all the free O-RLX2 peptide was degraded”. This compound gave a half-life (fetal bovine serum (FBS) 80% v/v) of 83.5 h.

Values taken from paper PMC9599704, “Liposomal Entrapment or Chemical Modification of Relaxin2 for Prolongation of Its Stability and Biological Activity” (Biomolecules, 2022).
